Data set [1] can be described thus: WST-1 proliferation assay, Jurkat. The format is cell-based. The following applies: human, Jurkat cells (acute T-cell leukemia), vs 0.1% DMSO control = 100%, mean ± standard deviation. Here is the method:
(§1) A thorough analysis of antiproliferative activity was performed across various cell culture types representing different histotypes: leukemia (Jurkat, MOLT-4), lung adenocarcinoma (A549), colorectal adenocarcinoma (HT-29), pancreatic carcinoma (PANC-1), breast adenocarcinoma (MCF-7), osteosarcoma (SAOS-2), and one non-cancerous cell line (fetal lung fibroblasts MRC-5). The cell lines were exposed to the newly synthesized compounds at a concentration of 100 μM for 48 h in a single-dose treatment. Changes in cell proliferation compared to the vehicle 0.1% dimethyl sulfoxide (DMSO) control were determined using the WST-1 assay, which is based on mitochondrial dehydrogenase metabolic activities. […] The overall cytotoxic activity of each compound was expressed as growth percent (GP) – the mean of the proliferation of all cell lines treated with the same compound.
(§2) Selected human tumor and non-tumor cell lines Jurkat (acute T-cell leukemia), MOLT-4 (acute lymphoblastic leukemia), A549 (lung carcinoma), HT-29 (colorectal adenocarcinoma), PANC-1 (pancreas epithelioid carcinoma), MCF-7 (breast adenocarcinoma), SAOS-2 (osteosarcoma) and MRC-5 (normal lung fibroblasts) were purchased from either American Type Culture Collection (ATCC; VA, USA) or Sigma-Aldrich (St. Louis, MO, USA) and cultured according to the provider's culture method guidelines. All cell lines were maintained at 37 °C in a humidified 5% carbon dioxide and 95% air incubator. Cells in the maximum range of either 10 passages for the adherent cell lines (A549, HT-29, PANC-1, MCF-7, SAOS-2, and MRC-5), or 20 passages for suspension cell lines (Jurkat, MOLT-4,) and in an exponential growth phase were used for this study. Screening of the antiproliferative effect and growth percent calculation were conducted as follows: each cell line was seeded at previously established optimal density (1–50 × 10^3 cells per well) in a 96-well plate (TPP, Trasadingen, Switzerland) and cells were allowed to settle overnight. Cells were treated for 48 h with compounds at a final concentration of 100 μM. At the end of the cultivation period, the WST-1 proliferation assay (Roche, Basel, Switzerland) was performed according to the manufacturer's protocol. The absorbance was measured at 440 nm using a Tecan Spark multimode microplate reader (Tecan, Mannedorf, Switzerland). Each value is the mean of three independent experiments and represents the percentage of proliferation (100% cell proliferation for 0.1% DMSO mock-treated control cells). The GP value was calculated for each compound tested. GP represents the mean of the percentage proliferation decrease of all cell lines treated with the same compound.

Data set [2] is described as follows: WST-1 proliferation assay, SAOS-2. The following applies: human, SAOS-2 cells (osteosarcoma), vs 0.1% DMSO control = 100%, mean ± standard deviation. It is filed as cell-based. Here is the method: as §1, §2
(Tetrazolium assays rely on reduction of a dye to a coloured formazan, in cell work by metabolically active cells.)

A short description of data set [3]: WST-1 proliferation assay, MOLT-4. The format is cell-based. To be noted: human, MOLT-4 cells (acute lymphoblastic leukemia), vs 0.1% DMSO control = 100%, mean ± standard deviation. Here is the method: as §1, §2
The nature of data set [4]: WST-1 proliferation assay, MRC-5. To be noted: human, MRC-5 cells (normal lung fibroblasts), vs 0.1% DMSO control = 100%, mean ± standard deviation. The format is cell-based. The procedure:
as §1, §2

In a further data set the test system is MOLT-4 cells. Briefly: Annexin V/PI flow cytometry viability of irradiated MOLT-4 cells. The format is cell-based, human. The following applies: 2 Gy; for viability at 100 µM / viability at 200 µM: Homo sapiens, 2 h pretreatment, 24 h. Here is the method: Consequently, we investigated whether the pre-application of these substances can augment the survival of MOLT-4 cells after irradiation exposure. The radioprotective investigation utilized a leukemia MOLT-4 cell model of hematopoietic origin with flow cytometric quantification of cell viability via annexin V/propidium iodide staining.
In the following step, at 24 h after irradiation, MOLT-4 cell viability and cell death were determined by flow cytometry using an Alexa Fluor® 488 annexin V/Dead Cell Apoptosis kit (Life Technologies, Grand Island, NY, USA) following the manufacturer's instructions. The Alexa Fluor®488 annexin V/Dead Cell Apoptosis kit employs the property of Alexa Fluor®488 conjugated to annexin V to bind to phosphatidylserine in the presence of Ca^2+; and the ability of propidium iodide to enter cells with damaged cell membranes and bind to DNA. For each sample, a minimum of 20 000 events were acquired using a CytoFLEX LX flow cytometer (Beckman Coulter, Miami, FL, USA). List mode data were analyzed using Kaluza Analysis 2.1 software (Beckman Coulter, Miami, FL, USA).
(Flow cytometry measures light scatter and fluorescence of single cells or particles in a stream.)

The nature of data set [5]: WST-1 proliferation assay, MCF-7. It is filed as cell-based. The following applies: human, MCF-7 cells (breast adenocarcinoma), vs 0.1% DMSO control = 100%, mean ± standard deviation. Here is the method:
as §1, §2

The nature of data set [6]: WST-1 proliferation assay, HT-29. It is filed as cell-based. To be noted: human, HT-29 cells (colorectal adenocarcinoma), vs 0.1% DMSO control = 100%, mean ± standard deviation. Here is the method: as §1, §2
[7] abbreviates: MOLT-4, representative histogram Fig. 5A (2 Gy alone 26 %), read-out: Viable (annexin V/PI negative) MOLT-4 cells, compound + 2 Gy.
The mark [8] stands for this setting: MOLT-4, representative histogram Fig. 6A (2 Gy alone 27 %), read-out: Viable (annexin V/PI negative) MOLT-4 cells, compound + 2 Gy.
[9] abbreviates: MOLT-4, light or radiation study, annexin V/PI negative cells, read-out: Viability rate of MOLT-4 cells relative to 2 Gy irradiation alone (100%).
The mark [10] stands for this setting: MOLT-4, annexin V/PI negative cells, read-out: Viable MOLT-4 cells relative to 2 Gy radiation alone (100%).

This is an account of results in article PMC11324046, “Second-generation piperazine derivatives as promising radiation countermeasures” (RSC Medicinal Chemistry, 2024).

Where two headings read alike, the source gives them in different places.

With `COc1cc([N+](=O)[O-])ccc1OCC(O)CN1CCN(CCO)CC1` (stereo not shown) [Compound 1, 1-(4-(2-Hydroxyethyl)piperazin-1-yl)-3-(2-methoxy-4-nitrophenoxy)propan-2-ol], the viability at 48 h, 100 µM in data set [1] was 91 ± 2%; in data set [2] it was 101 ± 16%; in data set [3], 92 ± 8%; in data set [4], 111 ± 9%; in data set [5], 100 ± 9%; in data set [6] it was 141 ± 42%. Further, in the data set with MOLT-4 cells (setting [7]), the viability at 100 µM stood at 35%. The viability at 200 µM in the data set with MOLT-4 cells (setting [8]) turned out to be 36%.

For `COc1ccc(OCC(O)CN2CCN(CCO)CC2)c([N+](=O)[O-])c1` (stereo not shown) [Compound 2, 1-(4-(2-Hydroxyethyl)piperazin-1-yl)-3-(4-methoxy-2-nitrophenoxy)propan-2-ol], the viability at 48 h, 100 µM in data set [1] amounted to 98 ± 3%; in data set [2], 103 ± 9%; in data set [3] it was 90 ± 7%; in data set [4], 105 ± 1%; in data set [5], 97 ± 8%; in data set [6] it was 103 ± 3%. In the data set on MOLT-4 cells (setting [7]), the viability at 100 µM amounted to 35%. Moreover, the viability at 200 µM in the data set with MOLT-4 cells (setting [8]) stood at 36%.

Consider `O=[N+]([O-])c1ccc(OCC(O)CN2CCN(CCO)CC2)c(F)c1` (stereo not shown) [Compound 3, 1-(4-(2-Hydroxyethyl)piperazin-1-yl)-3-(2-fluoro-4-nitrophenoxy)propan-2-ol], for which the viability at 48 h, 100 µM in data set [1] was determined as 92 ± 4%; in data set [2], 92 ± 14%; in data set [3] it was 84 ± 11%; in data set [4] it was 103 ± 6%; in data set [5], 91 ± 12%; in data set [6] it was 94 ± 9%. Also, the viability at 100 µM in the data set on MOLT-4 cells (setting [7]) worked out at 31%. Moreover, the viability at 200 µM in the data set on MOLT-4 cells (setting [8]) worked out at 35%.

Take `OCCN1CCN(CC(O)COc2ccc(F)cc2)CC1` (stereo not shown) [Compound 4, 1-(4-(2-Hydroxyethyl)piperazin-1-yl)-3-(4-fluorophenoxy)propan-2-ol]: the viability at 48 h, 100 µM amounted to 100 ± 3% in data set [1]; 102 ± 6% in data set [2]; 102 ± 16% in data set [3]; 103 ± 2% in data set [4]; 102 ± 5% in data set [5]; 99 ± 3% in data set [6]. Also, the viability at 100 µM in the data set with MOLT-4 cells (setting [9]) came to 143%; with MOLT-4 cells (setting [7]) it was 35%. Also, the viability at 200 µM worked out at 145% in the data set with MOLT-4 cells (setting [10]) and 37% in the data set with MOLT-4 cells (setting [8]).

For `O=[N+]([O-])c1cc(OCC(O)CN2CCN(CCO)CC2)ccc1Cl` (stereo not shown) [Compound 5, 1-(4-(2-Hydroxyethyl)piperazin-1-yl)-3-(4-chloro-3-nitrophenoxy)propan-2-ol], the viability at 48 h, 100 µM in data set [1] was found to be 85 ± 3%; in data set [2], 89 ± 3%; in data set [3], 84 ± 8%; in data set [4], 98 ± 3%; in data set [5] it was 104 ± 11%; in data set [6], 95 ± 6%. Further, in the data set with MOLT-4 cells (setting [7]), the viability at 100 µM is 32%. In addition, in the data set on MOLT-4 cells (setting [8]), the viability at 200 µM was found to be 30%.

Consider `OCCN1CCN(CC(O)COc2cccc(Cl)c2)CC1` (stereo not shown) [Compound 6, 1-(4-(2-Hydroxyethyl)piperazin-1-yl)-3-(3-chlorophenoxy)propan-2-ol], for which the viability at 48 h, 100 µM worked out at 89 ± 5% in data set [1]; 120 ± 26% in data set [2]; 89 ± 16% in data set [3]; 97 ± 1% in data set [4]; 86 ± 12% in data set [5]; 85 ± 7% in data set [6]. Also, the values for the viability at 100 µM with MOLT-4 cells (setting [9]) and in the data set with MOLT-4 cells (setting [7]) were 135% and 37%, respectively. For the same compound, the viability at 200 µM in the data set with MOLT-4 cells (setting [10]) is 137%; in the data set with MOLT-4 cells (setting [8]) it was 39%.

As for `NCCCNCCS` [WR1065, reference compound], the viability at 48 h, 100 µM was determined as 1% in data set [1]; 7 ± 4% in data set [2]; 3 ± 3% in data set [3]; 3 ± 1% in data set [4]; 2% in data set [5]; 20 ± 2% in data set [6]. Besides, in the data set on MOLT-4 cells (100 μM and 200 μM), the “Radioprotective effect in MOLT-4 cells (in words)” value is “did not exhibit distinct radioprotective effects”. Further, the viability at 100 µM in the data set with MOLT-4 cells (setting [7]) came out at 19%. Further, the viability at 200 µM with MOLT-4 cells (setting [8]) came to 9%.

As for `NCCCNCCSP(=O)(O)O` [WR2721, amifostine, reference compound], the viability at 48 h, 100 µM in data set [1] was determined as 10 ± 12%; in data set [2] it was 9 ± 3%; in data set [3] it was 71 ± 21%; in data set [4] it was 8 ± 4%; in data set [5], 7 ± 2%; in data set [6], 27 ± 3%. Moreover, the figures for the viability at 100 µM in the data set on MOLT-4 cells (setting [9]) and with MOLT-4 cells (setting [7]) were 106% and 28%, respectively. The viability at 200 µM with MOLT-4 cells (setting [8]) was 22%.
